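All cell lines were grown in 96-well plates and treated with compound for 48 hours. Abbreviation: GI50, concentration required for 50% inhibition of growth. TGI denotes the concentration required for complete inhibition of growth.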
Legend:
Assay in all cases: growth of human tumour cells (NCI), 48 h
MCF7 breast = tested on: MCF7 breast
UACC-257 melanoma = tested on: UACC-257 melanoma
EKVX NSCLC = tested on: EKVX NSCLC
ACHN renal = tested on: ACHN renal
SN12C renal = tested on: SN12C renal
SF-268 CNS = tested on: SF-268 CNS
IGROV1 ovarian = tested on: IGROV1 ovarian
SNB-19 CNS = tested on: SNB-19 CNS
T-47D breast = tested on: T-47D breast
HS 578T breast = tested on: HS 578T breast
SK-MEL-2 melanoma = tested on: SK-MEL-2 melanoma
OVCAR-4 ovarian = tested on: OVCAR-4 ovarian
TK-10 renal = tested on: TK-10 renal
NCI-H522 lung = tested on: NCI-H522 lung
SF-539 CNS = tested on: SF-539 CNS
HCT-116 colon = tested on: HCT-116 colon
SR leukemia = tested on: SR leukemia
OVCAR-5 ovarian = tested on: OVCAR-5 ovarian
A498 renal = tested on: A498 renal
HT29 colon = tested on: HT29 colon
SW-620 colon = tested on: SW-620 colon
M14 melanoma = tested on: M14 melanoma
HCT-15 colon = tested on: HCT-15 colon
K-562 leukemia = tested on: K-562 leukemia
SK-MEL-5 melanoma = tested on: SK-MEL-5 melanoma
HL-60(TB) leukemia = tested on: HL-60(TB) leukemia
NCI-H226 lung = tested on: NCI-H226 lung
HCC-2998 colon = tested on: HCC-2998 colon
MDA-MB-435 = tested on: MDA-MB-435
HOP-62 NSCLC = tested on: HOP-62 NSCLC
DU-145 prostate = tested on: DU-145 prostate
SK-OV-3 ovarian = tested on: SK-OV-3 ovarian
NCI-H23 lung = tested on: NCI-H23 lung
CCRF-CEM leukemia = tested on: CCRF-CEM leukemia
PC-3 prostate = tested on: PC-3 prostate
A549 NSCLC = tested on: A549 NSCLC
MOLT-4 leukemia = tested on: MOLT-4 leukemia
SNB-75 CNS = tested on: SNB-75 CNS
COLO 205 colon = tested on: COLO 205 colon
RXF 393 renal = tested on: RXF 393 renal
SF-295 CNS = tested on: SF-295 CNS
NCI/ADR-RES ovarian = tested on: NCI/ADR-RES ovarian
UO-31 renal = tested on: UO-31 renal
HOP-92 NSCLC = tested on: HOP-92 NSCLC
KM12 colon = tested on: KM12 colon
MDA-MB-231 breast = tested on: MDA-MB-231 breast
BT-549 breast = tested on: BT-549 breast
786-0 renal = tested on: 786-0 renal
OVCAR-3 ovarian = tested on: OVCAR-3 ovarian
NCI-H460 lung = tested on: NCI-H460 lung
LOX IMVI melanoma = tested on: LOX IMVI melanoma
U251 CNS = tested on: U251 CNS
RPMI-8226 leukemia = tested on: RPMI-8226 leukemia
UACC-62 melanoma = tested on: UACC-62 melanoma
SK-MEL-28 melanoma = tested on: SK-MEL-28 melanoma
OVCAR-8 ovarian = tested on: OVCAR-8 ovarian

`COC(=O)[C@@H](C)C[C@H](Cc1cn(C)c2ccccc12)NC(=O)c1csc([C@@H](C[C@H](C(C)C)N(C)C(=O)[C@@H](NC(=O)[C@H]2CCCCN2C)C(C)C)OC(C)=O)n1` showed a GI50 (MCF7 breast) of 5.24 nM, a TGI (MCF7 breast) greater than 16700 nM and a GI50 (UACC-257 melanoma) greater than 16700 nM. For the same compound, the TGI (UACC-257 melanoma) was greater than 16700 nM, the GI50 (EKVX NSCLC) was 44 nM and the TGI (EKVX NSCLC) was greater than 16700 nM. The GI50 (ACHN renal) was 153 nM, the TGI (ACHN renal) was greater than 16700 nM and the GI50 (SN12C renal) was 23.2 nM. For the same compound, the TGI (SN12C renal) was greater than 16700 nM, the GI50 (SF-268 CNS) was 27.2 nM and the TGI (SF-268 CNS) was greater than 16700 nM. For the same compound, the GI50 (IGROV1 ovarian) was 28.9 nM, the TGI (IGROV1 ovarian) was greater than 16700 nM and the GI50 (SNB-19 CNS) was 8.83 nM. For the same compound, the TGI (SNB-19 CNS) was greater than 16700 nM, the GI50 (T-47D breast) was greater than 16700 nM and the TGI (T-47D breast) was greater than 16700 nM. For the same compound, the GI50 (HS 578T breast) was 10.5 nM, the TGI (HS 578T breast) was 7580 nM and the GI50 (SK-MEL-2 melanoma) was 11.5 nM. For the same compound, the TGI (SK-MEL-2 melanoma) was greater than 16700 nM, the GI50 (OVCAR-4 ovarian) was 575 nM and the TGI (OVCAR-4 ovarian) was greater than 16700 nM. For the same compound, the GI50 (TK-10 renal) was 2770 nM, the TGI (TK-10 renal) was greater than 16700 nM and the GI50 (NCI-H522 lung) was 3.03 nM. It also gave a TGI (NCI-H522 lung) of 10.8 nM, a GI50 (SF-539 CNS) of 17.3 nM and a TGI (SF-539 CNS) of 116 nM. The GI50 (HCT-116 colon) was 7.07 nM, the TGI (HCT-116 colon) was greater than 16700 nM and the GI50 (SR leukemia) was 2.98 nM. The TGI (SR leukemia) was greater than 16700 nM, the GI50 (OVCAR-5 ovarian) was 67.1 nM and the TGI (OVCAR-5 ovarian) was greater than 16700 nM. The GI50 (A498 renal) was 45.6 nM, the TGI (A498 renal) was 1120 nM and the GI50 (HT29 colon) was 6.32 nM. The TGI (HT29 colon) was greater than 6310 nM, the GI50 (SW-620 colon) was 8.3 nM and the TGI (SW-620 colon) was greater than 16700 nM. The GI50 (M14 melanoma) was 12.1 nM, the TGI (M14 melanoma) was 645 nM and the GI50 (HCT-15 colon) was 66.5 nM. It also gave a TGI (HCT-15 colon) greater than 16700 nM, a GI50 (K-562 leukemia) of 5.47 nM and a TGI (K-562 leukemia) greater than 16700 nM. The GI50 (SK-MEL-5 melanoma) was 5.95 nM, the TGI (SK-MEL-5 melanoma) was 252 nM and the GI50 (HL-60(TB) leukemia) was 4.69 nM. It also gave a TGI (HL-60(TB) leukemia) of 19.4 nM, a GI50 (NCI-H226 lung) of 98.3 nM and a TGI (NCI-H226 lung) greater than 12000 nM. For the same compound, the GI50 (HCC-2998 colon) was 92.5 nM, the TGI (HCC-2998 colon) was greater than 16700 nM and the GI50 (MDA-MB-435) was 2.15 nM. For the same compound, the TGI (MDA-MB-435) was 8.56 nM, the GI50 (HOP-62 NSCLC) was 13.3 nM and the TGI (HOP-62 NSCLC) was greater than 16700 nM. It also gave a GI50 (DU-145 prostate) of 8.11 nM, a GI50 (SK-OV-3 ovarian) of 60.2 nM and a TGI (SK-OV-3 ovarian) greater than 16700 nM. It also gave a GI50 (NCI-H23 lung) of 71.8 nM, a TGI (NCI-H23 lung) greater than 16700 nM and a GI50 (CCRF-CEM leukemia) of 7.79 nM. For the same compound, the TGI (CCRF-CEM leukemia) was greater than 16700 nM, the GI50 (PC-3 prostate) was 13.9 nM and the TGI (PC-3 prostate) was greater than 16700 nM. It also gave a GI50 (A549 NSCLC) of 33.8 nM, a TGI (A549 NSCLC) greater than 16700 nM and a GI50 (MOLT-4 leukemia) of 13 nM. The TGI (MOLT-4 leukemia) was greater than 16700 nM, the GI50 (SNB-75 CNS) was 8.87 nM and the TGI (SNB-75 CNS) was greater than 14000 nM. For the same compound, the GI50 (COLO 205 colon) was 7.88 nM, the TGI (COLO 205 colon) was 85.9 nM and the GI50 (RXF 393 renal) was 23 nM. It also gave a TGI (RXF 393 renal) greater than 16700 nM, a GI50 (SF-295 CNS) of 24 nM and a TGI (SF-295 CNS) greater than 16700 nM. For the same compound, the GI50 (NCI/ADR-RES ovarian) was 417 nM, the TGI (NCI/ADR-RES ovarian) was greater than 16700 nM and the GI50 (UO-31 renal) was 169 nM. It also gave a TGI (UO-31 renal) greater than 16700 nM, a GI50 (HOP-92 NSCLC) of 16.3 nM and a TGI (HOP-92 NSCLC) of 4020 nM. The GI50 (KM12 colon) was 10.8 nM, the TGI (KM12 colon) was greater than 16700 nM and the GI50 (MDA-MB-231 breast) was 23.9 nM. It also gave a TGI (MDA-MB-231 breast) of 966 nM, a GI50 (BT-549 breast) of less than 11.3 nM and a TGI (BT-549 breast) of 490 nM. It also gave a GI50 (786-0 renal) of 54.5 nM, a TGI (786-0 renal) greater than 13000 nM and a GI50 (OVCAR-3 ovarian) of 5.1 nM. For the same compound, the GI50 (NCI-H460 lung) was 10.1 nM, the TGI (NCI-H460 lung) was greater than 6110 nM and the GI50 (LOX IMVI melanoma) was 11 nM. It also gave a TGI (LOX IMVI melanoma) greater than 16700 nM, a GI50 (U251 CNS) of 10.2 nM and a TGI (U251 CNS) greater than 16700 nM. The GI50 (RPMI-8226 leukemia) was 7.76 nM, the TGI (RPMI-8226 leukemia) was greater than 16700 nM and the GI50 (UACC-62 melanoma) was 7.45 nM. For the same compound, the TGI (UACC-62 melanoma) was greater than 16700 nM, the GI50 (SK-MEL-28 melanoma) was greater than 4360 nM and the TGI (SK-MEL-28 melanoma) was greater than 16700 nM. It also gave a GI50 (OVCAR-8 ovarian) of 30.2 nM and a TGI (OVCAR-8 ovarian) greater than 16700 nM.

Source: PubChem BioAssay (NCI)
